Experiments:
[1] = molecular target: T1, IRAK1 (Homo sapiens, UniProt P51617); assay: RBC HotSpot Kinase Assay, IRAK1; format: biochemical; details: isolated kinase, 33P-ATP
T1 construct: purchased Reaction Biology (RBC), HotSpot kinase assay
Outline: (§1)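 Read-out was P81 filter binding of 33P incorporated into substrate by isolated kinase during a 2 h room-temperature reaction. Compound was preincubated with enzyme for 20 min at room temperature; buffer was Hepes pH 7.5 with Mg2+, EGTA, Brij35 and 1% DMSO.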

[2] = system: MOLM14 F691L cells; assay: MOLM14 F691L cell viability assay (Cell Titer Glo); format: cell-based; details: Homo sapiens, MOLM-14, 48 h
Outline: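 MOLM14 cells carrying FLT3 D835Y or F691L were seeded at 1000 cells/well in RPMI-1640 with 20% FBS and dosed at 22 concentrations, 1:2 dilutions from 10 μM. Viability after 48 h by Cell Titer Glo luminescence; 2.3 μM bortezomib as cytotoxic control.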

[3] = molecular target: T2, FLT3 (Homo sapiens, UniProt P36888); assay: RBC HotSpot Kinase Assay, FLT3; format: biochemical; parameters: purchased Reaction Biology (RBC), HotSpot kinase assay; details: isolated kinase, 33P-ATP
T2 sequence (P36888 27-993): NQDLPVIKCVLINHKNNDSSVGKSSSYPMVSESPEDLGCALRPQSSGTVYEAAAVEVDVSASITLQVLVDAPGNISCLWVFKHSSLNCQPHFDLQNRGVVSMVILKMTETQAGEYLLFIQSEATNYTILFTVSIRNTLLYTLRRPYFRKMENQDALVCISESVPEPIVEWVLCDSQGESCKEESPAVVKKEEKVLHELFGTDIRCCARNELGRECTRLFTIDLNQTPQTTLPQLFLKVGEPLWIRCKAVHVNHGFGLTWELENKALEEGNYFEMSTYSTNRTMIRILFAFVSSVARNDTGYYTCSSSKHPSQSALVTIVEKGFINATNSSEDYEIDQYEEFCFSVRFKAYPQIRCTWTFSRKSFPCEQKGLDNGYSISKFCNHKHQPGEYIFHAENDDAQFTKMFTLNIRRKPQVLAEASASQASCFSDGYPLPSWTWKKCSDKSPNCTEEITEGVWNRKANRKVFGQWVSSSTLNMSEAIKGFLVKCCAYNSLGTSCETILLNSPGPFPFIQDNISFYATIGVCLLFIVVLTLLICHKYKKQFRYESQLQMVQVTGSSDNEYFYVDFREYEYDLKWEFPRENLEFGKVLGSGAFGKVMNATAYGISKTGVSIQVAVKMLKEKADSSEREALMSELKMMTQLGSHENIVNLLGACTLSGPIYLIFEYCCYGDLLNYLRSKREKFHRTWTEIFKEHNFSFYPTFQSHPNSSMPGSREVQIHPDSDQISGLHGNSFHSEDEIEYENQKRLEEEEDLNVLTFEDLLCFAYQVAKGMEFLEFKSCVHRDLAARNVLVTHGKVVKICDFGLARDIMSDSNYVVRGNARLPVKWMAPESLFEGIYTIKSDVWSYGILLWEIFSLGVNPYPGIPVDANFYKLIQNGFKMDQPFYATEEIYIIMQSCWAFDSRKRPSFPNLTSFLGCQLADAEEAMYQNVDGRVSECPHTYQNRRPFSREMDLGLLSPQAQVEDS
Outline: as §1

T1 sequence (P51617 whole entry): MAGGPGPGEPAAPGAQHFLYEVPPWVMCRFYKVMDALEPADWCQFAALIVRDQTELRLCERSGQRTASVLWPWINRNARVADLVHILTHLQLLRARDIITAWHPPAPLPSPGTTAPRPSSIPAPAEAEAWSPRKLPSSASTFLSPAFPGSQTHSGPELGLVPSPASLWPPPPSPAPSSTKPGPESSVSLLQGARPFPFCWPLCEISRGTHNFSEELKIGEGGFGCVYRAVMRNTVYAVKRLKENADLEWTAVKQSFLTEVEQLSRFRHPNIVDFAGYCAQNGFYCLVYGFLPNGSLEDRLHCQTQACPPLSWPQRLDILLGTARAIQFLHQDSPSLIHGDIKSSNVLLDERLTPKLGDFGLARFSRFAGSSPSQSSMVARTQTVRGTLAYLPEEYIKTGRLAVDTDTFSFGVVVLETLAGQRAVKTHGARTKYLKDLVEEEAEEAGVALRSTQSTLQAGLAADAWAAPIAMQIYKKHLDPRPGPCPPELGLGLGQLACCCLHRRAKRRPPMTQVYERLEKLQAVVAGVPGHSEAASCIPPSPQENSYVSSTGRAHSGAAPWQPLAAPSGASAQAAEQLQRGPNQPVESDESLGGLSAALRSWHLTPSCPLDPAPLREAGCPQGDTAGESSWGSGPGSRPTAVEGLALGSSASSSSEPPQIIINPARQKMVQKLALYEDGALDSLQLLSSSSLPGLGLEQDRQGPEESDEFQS

| SMILES | IC50 [1] | IC50 [2] | IC50 [3] |
| --- | --- | --- | --- |
| O=C1CCCN1c1cn2c(-c3nc(N[C@@H]4CCCNC4)c(F)cc3F)cnc2cn1 [Compound 108, (R)-1-(3-(3,5-difluoro-6-(piperidin-3-ylamino)pyridin-2-yl)imidazo[1,2-a]pyrazin-6-yl)pyrrolidin-2-one] | 109 nM | 183 nM | 0.9 nM |
| O=C1NCCN1c1cn2c(-c3cccc(N[C@H]4CNCC[C@@H]4F)n3)cnc2cn1 [Compound 118, 1-(3-(6-(((3S,4S)-4-fluoropiperidin-3-yl)amino)pyridin-2-yl)imidazo[1,2-a]pyrazin-6-yl)imidazolidin-2-one] | 22 nM | 37 nM | 1 nM |
| O=C1CCCN1c1cn2c(-c3cccc(N[C@H]4CNC[C@@H]4F)n3)cnc2cn1 [Compound 121, 1-(3-(6-(((3S,4S)-4-fluoropyrrolidin-3-yl)amino)pyridin-2-yl)imidazo[1,2-a]pyrazin-6-yl)pyrrolidin-2-one] | 207 nM | 173 nM | < 0.5 nM |
| CC(C)(C)c1cn2c(-c3nc(N[C@H]4CNC[C@@H]4F)c(F)cc3F)cnc2cn1 [Compound 125] | 51 nM | 2050 nM | < 0.5 nM |
| CC(C)(C)c1cn2c(-c3nc(N[C@@H]4CCCNC4)c(F)cc3F)cnc2cn1 [Compound 126, (R)-6-(6-(tert-butyl)imidazo[1,2-a]pyrazin-3-yl)-3,5-difluoro-N-(piperidin-3-yl)pyridin-2-amine] | 80 nM | 205 nM | < 0.5 nM |
| CC(C)(C)c1cn2c(-c3nc(N[C@H]4CNCC[C@@H]4F)c(F)cc3F)cnc2cn1 [Compound 127, 6-(6-(tert-butyl)imidazo[1,2-a]pyrazin-3-yl)-3,5-difluoro-N-((3S,4S)-4-fluoropiperidin-3-yl)pyridin-2-amine] | 60 nM | 410 nM | < 0.5 nM |

The next lines start with the values.

| IC50 [1] | IC50 [2] | IC50 [3] | SMILES |
| --- | --- | --- | --- |
| 110 nM | 54 nM | < 0.5 nM | O=C1CCCN1c1cn2c(-c3cccc(N[C@H]4CNCC[C@@H]4F)n3)cnc2cn1 [Compound 119, 1-(3-(6-(((3S,4S)-4-fluoropiperidin-3-yl)amino)pyridin-2-yl)imidazo[1,2-a]pyrazin-6-yl)pyrrolidin-2-one] |
| 97 nM | 163 nM | < 0.5 nM | CC(C)(C)c1cn2c(-c3cccc(N[C@@H]4CCCNC4)n3)cnc2cn1 [Compound 129, (R)-6-(6-(tert-butyl)imidazo[1,2-a]pyrazin-3-yl)-N-(piperidin-3-yl)pyridin-2-amine] |
| 49 nM | 130 nM | < 0.5 nM | CC(C)(C)c1cn2c(-c3cccc(N[C@H]4CNCC[C@@H]4F)n3)cnc2cn1 [Compound 130, 6-(6-(tert-butyl)imidazo[1,2-a]pyrazin-3-yl)-N-((3S,4S)-4-fluoropiperidin-3-yl)pyridin-2-amine] |
